Where a name gives a salt, the structure may show the parent alone.
Test: Phase 1 dose escalation study: safety, treatment related AEs
Assay type: in vivo
Experimental: The subjects were 40-75 years old with BMI of 18.0-30 kg/m^2. Subjects having evidence of clinically relevant pathology, increased risk of stroke or of history venous thromboembolic events, or use of concomitant medication less than 14 days prior to admission to clinical research center (paracetamol allowed up to 3 days prior) were excluded.
The subjects were treated with placebo or at least one dose p.o., q.d. after a light breakfast for 7 days at dose levels of 200 mg, 500 mg, 750 mg and 1000 mg, respectively.

For `CCNCCc1ccc(CN(CC)c2cc(OC)ccc2[C@@H]2CCc3cc(O)ccc3C2)cc1` [RAD1901, (6R)-6-(2-(N-(4-(2-(ethylamino)ethyl)benzyl)-N-ethylamino)-4-methoxyphenyl)-5,6,7,8-tetrahydronaphthalen-2-ol dihydrochloride], the “Abdominal discomfort (treatment related AE)” value (“Abdominal discomfort” for short) (200 mg, Gr1) was 3 n(%), the “Abdominal distension (treatment related AE)” value (shortened to “Abdominal distension”) (200 mg, Gr1) was 1 n(%) and the “Abdominal pain (treatment related AE)” value (200 mg, Gr1) was 2 n(%). The “Diarrhoea (treatment related AE)” value (200 mg, Gr1) was 0 n(%), the “Dizziness (treatment related AE)” value (200 mg, Gr1) was 1 n(%) and the “Dyspepsia (treatment related AE)” value (200 mg, Gr1) was 3 n(%). The “Dysphagia (treatment related AE)” value (200 mg, Gr1) was 0 n(%), the “Flatulance (treatment related AE)” value (200 mg, Gr1) was 2 n(%) and the “Headache (treatment related AE)” value (200 mg, Gr1) was 3 n(%). The “Hiccups (treatment related AE)” value (200 mg, Gr1) was 1 n(%), the “Hot flush (treatment related AE)” value (200 mg, Gr1) was 2 n(%) and the “Myalgia (treatment related AE)” value (200 mg, Gr1) was 2 n(%). For the same compound, the “Nausea (treatment related AE)” value (200 mg, Gr1) was 5 n(%), the “Odynophagia (treatment related AE)” value (200 mg, Gr1) was 2 n(%) and the “Oesophageal pain (treatment related AE)” value (200 mg, Gr1) was 0 n(%). The “Salivary hypersecretion (treatment related AE)” value (“Salivary hypersecretion” below) (200 mg, Gr1) was 2 n(%), the “Sensation of a foreign body (treatment related AE)” value (“Sensation of a foreign body” for short) (200 mg, Gr1) was 2 n(%) and the “Vomiting (treatment related AE)” value (200 mg, Gr1) was 2 n(%). For the same compound, the “Abdominal discomfort” value (200 mg, Gr2) was 0 n(%), the “Abdominal distension” value (200 mg, Gr2) was 1 n(%) and the “Abdominal pain (treatment related AE)” value (200 mg, Gr2) was 2 n(%). For the same compound, the “Diarrhoea (treatment related AE)” value (200 mg, Gr2) was 0 n(%), the “Dizziness (treatment related AE)” value (200 mg, Gr2) was 0 n(%) and the “Dyspepsia (treatment related AE)” value (200 mg, Gr2) was 0 n(%). For the same compound, the “Dysphagia (treatment related AE)” value (200 mg, Gr2) was 0 n(%), the “Flatulance (treatment related AE)” value (200 mg, Gr2) was 0 n(%) and the “Headache (treatment related AE)” value (200 mg, Gr2) was 0 n(%). The “Hiccups (treatment related AE)” value (200 mg, Gr2) was 0 n(%), the “Hot flush (treatment related AE)” value (200 mg, Gr2) was 0 n(%) and the “Myalgia (treatment related AE)” value (200 mg, Gr2) was 1 n(%). The “Nausea (treatment related AE)” value (200 mg, Gr2) was 0 n(%), the “Odynophagia (treatment related AE)” value (200 mg, Gr2) was 0 n(%) and the “Oesophageal pain (treatment related AE)” value (200 mg, Gr2) was 2 n(%). For the same compound, the “Salivary hypersecretion” value (200 mg, Gr2) was 0 n(%), the “Sensation of a foreign body” value (200 mg, Gr2) was 0 n(%) and the “Vomiting (treatment related AE)” value (200 mg, Gr2) was 0 n(%). The “Abdominal discomfort” value (200 mg, Gr3) was 0 n(%), the “Abdominal distension” value (200 mg, Gr3) was 0 n(%) and the “Abdominal pain (treatment related AE)” value (200 mg, Gr3) was 0 n(%). For the same compound, the “Diarrhoea (treatment related AE)” value (200 mg, Gr3) was 0 n(%), the “Dizziness (treatment related AE)” value (200 mg, Gr3) was 0 n(%) and the “Dyspepsia (treatment related AE)” value (200 mg, Gr3) was 0 n(%). For the same compound, the “Dysphagia (treatment related AE)” value (200 mg, Gr3) was 0 n(%), the “Flatulance (treatment related AE)” value (200 mg, Gr3) was 0 n(%) and the “Headache (treatment related AE)” value (200 mg, Gr3) was 0 n(%). For the same compound, the “Hiccups (treatment related AE)” value (200 mg, Gr3) was 0 n(%), the “Hot flush (treatment related AE)” value (200 mg, Gr3) was 0 n(%) and the “Myalgia (treatment related AE)” value (200 mg, Gr3) was 0 n(%). For the same compound, the “Nausea (treatment related AE)” value (200 mg, Gr3) was 0 n(%), the “Odynophagia (treatment related AE)” value (200 mg, Gr3) was 0 n(%) and the “Oesophageal pain (treatment related AE)” value (200 mg, Gr3) was 0 n(%). The “Salivary hypersecretion” value (200 mg, Gr3) was 0 n(%), the “Sensation of a foreign body” value (200 mg, Gr3) was 0 n(%) and the “Vomiting (treatment related AE)” value (200 mg, Gr3) was 0 n(%). For the same compound, the “Abdominal discomfort” value (500 mg, Gr1) was 0 n(%), the “Abdominal distension” value (500 mg, Gr1) was 1 (7) n(%) and the “Abdominal pain (treatment related AE)” value (500 mg, Gr1) was 3 (21) n(%). The “Diarrhoea (treatment related AE)” value (500 mg, Gr1) was 3 (21) n(%), the “Dizziness (treatment related AE)” value (500 mg, Gr1) was 2 (14) n(%) and the “Dyspepsia (treatment related AE)” value (500 mg, Gr1) was 5 (36) n(%). For the same compound, the “Dysphagia (treatment related AE)” value (500 mg, Gr1) was 1 (7) n(%), the “Flatulance (treatment related AE)” value (500 mg, Gr1) was 2 (14) n(%) and the “Headache (treatment related AE)” value (500 mg, Gr1) was 1 (7) n(%). For the same compound, the “Hiccups (treatment related AE)” value (500 mg, Gr1) was 4 (29) n(%), the “Hot flush (treatment related AE)” value (500 mg, Gr1) was 6 (43) n(%) and the “Myalgia (treatment related AE)” value (500 mg, Gr1) was 0 n(%). For the same compound, the “Nausea (treatment related AE)” value (500 mg, Gr1) was 3 (21) n(%), the “Odynophagia (treatment related AE)” value (500 mg, Gr1) was 1 (7) n(%) and the “Oesophageal pain (treatment related AE)” value (500 mg, Gr1) was 1 (7) n(%). The “Salivary hypersecretion” value (500 mg, Gr1) was 2 (14) n(%), the “Sensation of a foreign body” value (500 mg, Gr1) was 1 (7) n(%) and the “Vomiting (treatment related AE)” value (500 mg, Gr1) was 1 (7) n(%). For the same compound, the “Abdominal discomfort” value (500 mg, Gr2) was 0 n(%), the “Abdominal distension” value (500 mg, Gr2) was 0 n(%) and the “Abdominal pain (treatment related AE)” value (500 mg, Gr2) was 0 n(%). For the same compound, the “Diarrhoea (treatment related AE)” value (500 mg, Gr2) was 0 n(%), the “Dizziness (treatment related AE)” value (500 mg, Gr2) was 0 n(%) and the “Dyspepsia (treatment related AE)” value (500 mg, Gr2) was 2 n(%). The “Dysphagia (treatment related AE)” value (500 mg, Gr2) was 2 n(%), the “Flatulance (treatment related AE)” value (500 mg, Gr2) was 0 n(%) and the “Headache (treatment related AE)” value (500 mg, Gr2) was 1 n(%). For the same compound, the “Hiccups (treatment related AE)” value (500 mg, Gr2) was 0 n(%), the “Hot flush (treatment related AE)” value (500 mg, Gr2) was 0 n(%) and the “Myalgia (treatment related AE)” value (500 mg, Gr2) was 1 n(%). The “Nausea (treatment related AE)” value (500 mg, Gr2) was 2 n(%), the “Odynophagia (treatment related AE)” value (500 mg, Gr2) was 1 n(%) and the “Oesophageal pain (treatment related AE)” value (500 mg, Gr2) was 3 n(%). For the same compound, the “Salivary hypersecretion” value (500 mg, Gr2) was 0 n(%), the “Sensation of a foreign body” value (500 mg, Gr2) was 0 n(%) and the “Vomiting (treatment related AE)” value (500 mg, Gr2) was 5 n(%). The “Abdominal discomfort” value (500 mg, Gr3) was 0 n(%), the “Abdominal distension” value (500 mg, Gr3) was 0 n(%) and the “Abdominal pain (treatment related AE)” value (500 mg, Gr3) was 0 n(%). The “Diarrhoea (treatment related AE)” value (500 mg, Gr3) was 0 n(%), the “Dizziness (treatment related AE)” value (500 mg, Gr3) was 0 n(%) and the “Dyspepsia (treatment related AE)” value (500 mg, Gr3) was 0 n(%). The “Dysphagia (treatment related AE)” value (500 mg, Gr3) was 0 n(%), the “Flatulance (treatment related AE)” value (500 mg, Gr3) was 0 n(%) and the “Headache (treatment related AE)” value (500 mg, Gr3) was 0 n(%). For the same compound, the “Hiccups (treatment related AE)” value (500 mg, Gr3) was 0 n(%), the “Hot flush (treatment related AE)” value (500 mg, Gr3) was 0 n(%) and the “Myalgia (treatment related AE)” value (500 mg, Gr3) was 0 n(%). The “Nausea (treatment related AE)” value (500 mg, Gr3) was 0 n(%), the “Odynophagia (treatment related AE)” value (500 mg, Gr3) was 0 n(%) and the “Oesophageal pain (treatment related AE)” value (500 mg, Gr3) was 0 n(%). For the same compound, the “Salivary hypersecretion” value (500 mg, Gr3) was 0 n(%), the “Sensation of a foreign body” value (500 mg, Gr3) was 0 n(%) and the “Vomiting (treatment related AE)” value (500 mg, Gr3) was 1 n(%). For the same compound, the “Abdominal discomfort” value (750 mg, Gr1) was 1 (13) n(%), the “Abdominal distension” value (750 mg, Gr1) was 1 (13) n(%) and the “Abdominal pain (treatment related AE)” value (750 mg, Gr1) was 1 (13) n(%). For the same compound, the “Diarrhoea (treatment related AE)” value (750 mg, Gr1) was 0 n(%), the “Dizziness (treatment related AE)” value (750 mg, Gr1) was 1 (13) n(%) and the “Dyspepsia (treatment related AE)” value (750 mg, Gr1) was 4 (50) n(%). The “Dysphagia (treatment related AE)” value (750 mg, Gr1) was 3 (38) n(%), the “Flatulance (treatment related AE)” value (750 mg, Gr1) was 1 (13) n(%) and the “Headache (treatment related AE)” value (750 mg, Gr1) was 3 (38) n(%). The “Hiccups (treatment related AE)” value (750 mg, Gr1) was 2 (25) n(%), the “Hot flush (treatment related AE)” value (750 mg, Gr1) was 2 (25) n(%) and the “Myalgia (treatment related AE)” value (750 mg, Gr1) was 1 (13) n(%). The “Nausea (treatment related AE)” value (750 mg, Gr1) was 2 (25) n(%), the “Odynophagia (treatment related AE)” value (750 mg, Gr1) was 0 n(%) and the “Oesophageal pain (treatment related AE)” value (750 mg, Gr1) was 1 (13) n(%). The “Salivary hypersecretion” value (750 mg, Gr1) was 2 (25) n(%), the “Sensation of a foreign body” value (750 mg, Gr1) was 0 n(%) and the “Vomiting (treatment related AE)” value (750 mg, Gr1) was 0 n(%). The “Abdominal discomfort” value (750 mg, Gr2) was 1 n(%), the “Abdominal distension” value (750 mg, Gr2) was 0 n(%) and the “Abdominal pain (treatment related AE)” value (750 mg, Gr2) was 0 n(%). The “Diarrhoea (treatment related AE)” value (750 mg, Gr2) was 0 n(%), the “Dizziness (treatment related AE)” value (750 mg, Gr2) was 0 n(%) and the “Dyspepsia (treatment related AE)” value (750 mg, Gr2) was 0 n(%). For the same compound, the “Dysphagia (treatment related AE)” value (750 mg, Gr2) was 1 n(%), the “Flatulance (treatment related AE)” value (750 mg, Gr2) was 0 n(%) and the “Headache (treatment related AE)” value (750 mg, Gr2) was 0 n(%). For the same compound, the “Hiccups (treatment related AE)” value (750 mg, Gr2) was 0 n(%), the “Hot flush (treatment related AE)” value (750 mg, Gr2) was 0 n(%) and the “Myalgia (treatment related AE)” value (750 mg, Gr2) was 0 n(%). For the same compound, the “Nausea (treatment related AE)” value (750 mg, Gr2) was 1 n(%), the “Odynophagia (treatment related AE)” value (750 mg, Gr2) was 0 n(%) and the “Oesophageal pain (treatment related AE)” value (750 mg, Gr2) was 0 n(%). The “Salivary hypersecretion” value (750 mg, Gr2) was 0 n(%), the “Sensation of a foreign body” value (750 mg, Gr2) was 0 n(%) and the “Vomiting (treatment related AE)” value (750 mg, Gr2) was 2 n(%). For the same compound, the “Abdominal discomfort” value (750 mg, Gr3) was 0 n(%).
